Test results published in patent US8933195B2, “Histone deacetylase inhibitors and synthetic method thereof and use thereof in manufacture of medicaments” (Nanjing Yoko Biomedical R & D Ltd., priority 2011, dated 2015).
Where two headings read alike, the source gives them in different places.

What was measured:
HDAC1 = HDAC1 (Homo sapiens, UniProt Q13547); assay: Measurement of biochemical activities of HDAC (fluorescently-labeled acetylated lysine substrate)
Method: (§1) 1. Measurement principles: the measurement of biochemical activities of compounds is determined according to the degree of the compounds inhibiting the deacylation of HDAC enzyme. After the fluorescently-labeled substrate containing acetylated lysine side chain reacts with the HDAC enzyme, the fluorogenic substrate is deacetylated. After the deacetylated fluorescently-labeled substrate is cracked by the enzyme, a fluorescent substance is released. The fluorescent substance generates emitting light of 460 nm under the excitation of light of 360 nm.
(§2) 2. Detailed steps: the substrate of HDAC is diluted to […] (the reaction concentration is […]) with a reaction buffer. HDAC enzyme is diluted to a proper concentration. The compounds to be detected in different concentrations are added. The mixture reacts for 30 min at 37. Then the developer with the same volume and twice concentration of the substrate is added into the mixture. The mixture is incubated for 15 min at room temperature. Finally, the reading is measured with a micro plate scanner. The excitation light is 360 nm, the emitting light is 460 nm, and the data is processed with Prime 4 software.

HDAC7 = target: T1, HDAC7 (Homo sapiens, UniProt Q8WUI4); assay: as above
T1 sequence (Q8WUI4 1-952): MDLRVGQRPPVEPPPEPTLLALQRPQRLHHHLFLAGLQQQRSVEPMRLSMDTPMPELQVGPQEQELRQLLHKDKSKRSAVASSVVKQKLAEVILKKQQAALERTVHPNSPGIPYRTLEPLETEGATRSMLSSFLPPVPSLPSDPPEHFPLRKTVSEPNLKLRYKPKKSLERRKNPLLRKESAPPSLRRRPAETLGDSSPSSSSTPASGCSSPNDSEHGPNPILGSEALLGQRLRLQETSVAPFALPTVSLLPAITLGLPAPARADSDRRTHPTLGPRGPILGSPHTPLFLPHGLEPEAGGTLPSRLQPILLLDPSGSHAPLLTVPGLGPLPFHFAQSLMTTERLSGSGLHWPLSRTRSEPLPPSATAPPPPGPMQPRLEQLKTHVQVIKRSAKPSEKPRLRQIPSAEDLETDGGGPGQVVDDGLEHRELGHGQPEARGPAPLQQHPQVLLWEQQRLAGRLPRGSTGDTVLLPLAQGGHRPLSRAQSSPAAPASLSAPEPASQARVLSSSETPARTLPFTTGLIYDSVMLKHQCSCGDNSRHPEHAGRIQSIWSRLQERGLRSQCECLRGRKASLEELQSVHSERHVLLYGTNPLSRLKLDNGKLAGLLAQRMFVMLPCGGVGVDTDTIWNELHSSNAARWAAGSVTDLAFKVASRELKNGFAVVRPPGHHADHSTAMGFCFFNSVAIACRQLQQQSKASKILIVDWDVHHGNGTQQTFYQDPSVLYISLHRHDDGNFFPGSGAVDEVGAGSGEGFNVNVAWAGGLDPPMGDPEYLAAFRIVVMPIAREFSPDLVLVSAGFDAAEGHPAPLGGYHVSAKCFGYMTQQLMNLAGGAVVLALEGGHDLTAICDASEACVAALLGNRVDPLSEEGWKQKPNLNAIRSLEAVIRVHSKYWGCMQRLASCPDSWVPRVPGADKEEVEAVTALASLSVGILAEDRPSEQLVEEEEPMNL
Method: as §1, §2

[1] = tested on: A549 (human lung cancer cells); assay: MTT cancer cell growth inhibition; type: cell-based; conditions: 72 h
Source text: (§3) 1. Experimental principles: the inhibition of cancer cell growth with compounds is detected by an MTT method. The principle of the MTT method is as follows: yellow thiazolyl blue may penetrate through cell membranes and enter into cells, succinate dehydrogenase in living cell mitochondria may reduce exogenous MTT into water-insoluble ianthinus acicular Formazan crystals which deposit in the cells, the crystals can be dissolved with dimethyl sulfoxide (DMSO), the optical density of the crystals is detected with an enzyme-linked immunometric meter at the wavelength of 490 nm/570 nm, and the number of cells can be indirectly reflected.
(§4) 2. Experimental materials: the used cancer cell lines are Hela (human cervical cancer cells), MCF-7 (human breast cancer cells), BGC-823 (human gastric cancer cells), A549 (human lung cancer cells), HT1080 (human fibrosarcoma cells), A431 (human epidermal squamous cell carcinoma cells), HUVEC (human umbilical vein endothelial cells), DU145 (human prostate cancer cells), K562 (human leukemia cells), U937 (human leukemia cells), Pac-1 (human pancreatic cancer cells), and MOLT-4 (human acute lymphoblastic leukemia cells), which are cultured with a DMEM+10% FBS culture medium or a 1640+10% FBS culture medium, respectively.
(§5) Experimental groups: 190 μl cell suspension+10 μl pharmaceuticals in different concentrations (the final concentration is 10^−5-10^−10M)
(§6) Negative control group: 190 μl cell suspension+10 μl 2% DMSO (the final concentration of DMSO is 0.1%)
(§7) a) Cells are inoculated on a 96-pore plate, with 1500 cells and 190 μl for each hole, and cultured overnight in a 5% CO2 incubator at 37.
(§8) b) 10 μl of different pharmaceuticals is added into each hole the next day, with the final concentration of the pharmaceuticals of 10^−5-10^−10M and three parallel holes, and incubated for 72 h in a 5% CO2 incubator at 37.
(§9) c) 20 μl of 5 mg/mL MTT is added into each hole, and incubated for 4 h in a 5% CO2 incubator at 37.
(§10) d) Supernatant is removed. 100 μl of DMSO is added into each hole and vibrated.
(§11) e) The reading is 570 nm. The cell survival rate is calculated.

[2] = tested on: BGC-823 (human gastric cancer cells); assay: MTT cancer cell growth inhibition; type: cell-based; conditions: 72 h, read-out: GI50 BGC823
Source text: as §3, §4, §5, §6, §7, §8, §9, §10, §11

[3] = tested on: DU145 (human prostate cancer cells); assay: MTT cancer cell growth inhibition; type: cell-based; conditions: DU-145, 72 h
Source text: as §3, §4, §5, §6, §7, §8, §9, §10, §11

[4] = tested on: HT1080 (human fibrosarcoma cells); assay: MTT cancer cell growth inhibition; type: cell-based; conditions: HT-1080, 72 h
Source text: as §3, §4, §5, §6, §7, §8, §9, §10, §11

[5] = tested on: Hela (human cervical cancer cells); assay: MTT cancer cell growth inhibition; type: cell-based; conditions: 72 h
Source text: as §3, §4, §5, §6, §7, §8, §9, §10, §11

[6] = tested on: MCF-7 (human breast cancer cells); assay: MTT cancer cell growth inhibition; type: cell-based; conditions: MCF7, 72 h
Source text: as §3, §4, §5, §6, §7, §8, §9, §10, §11

[7] = tested on: MOLT-4 (human acute lymphoblastic leukemia cells); assay: MTT cancer cell growth inhibition; type: cell-based; conditions: 72 h
Source text: as §3, §4, §5, §6, §7, §8, §9, §10, §11

PANC-1 = assay: MTT cancer cell growth inhibition; type: cell-based; conditions: Homo sapiens, 72 h
Source text: as §3, §4, §5, §6, §7, §8, §9, §10, §11

[8] = tested on: U937 (human leukemia cells); assay: MTT cancer cell growth inhibition; type: cell-based; conditions: U-937, 72 h
Source text: as §3, §4, §5, §6, §7, §8, §9, §10, §11

Incap = assay: MTT cancer cell growth inhibition; type: cell-based; conditions: 72 h

Chain of HDAC1 (Q13547 whole entry, species assumed): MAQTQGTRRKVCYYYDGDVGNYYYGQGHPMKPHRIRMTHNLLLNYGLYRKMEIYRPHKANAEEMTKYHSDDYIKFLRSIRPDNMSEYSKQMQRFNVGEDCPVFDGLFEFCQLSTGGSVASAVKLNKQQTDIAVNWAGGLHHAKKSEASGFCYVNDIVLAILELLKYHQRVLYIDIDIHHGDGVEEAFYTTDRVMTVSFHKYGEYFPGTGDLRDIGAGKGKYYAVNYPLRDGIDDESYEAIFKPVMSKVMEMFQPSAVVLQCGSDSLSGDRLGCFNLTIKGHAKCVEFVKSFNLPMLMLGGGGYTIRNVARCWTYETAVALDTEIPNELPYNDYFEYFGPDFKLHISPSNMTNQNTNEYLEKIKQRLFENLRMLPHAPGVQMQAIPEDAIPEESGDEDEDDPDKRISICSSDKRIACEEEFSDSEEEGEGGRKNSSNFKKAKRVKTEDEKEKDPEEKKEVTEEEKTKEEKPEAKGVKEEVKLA

Compound	IC50 (HDAC1; read-out: IC50 HDAC1)	IC50 HDAC7 (HDAC7)	GI50 [1]	GI50 [2]	GI50 [3]	GI50 [4]	GI50 [5]	GI50 [6]	GI50 [7]	GI50 (PANC-1)	GI50 [8]	GI50 (Incap)	IC50 (HDAC1)
C/C=C1\NC(=O)c2csc(n2)CNC(=O)C[C@@H](/C=C/CCSC(=O)CCCCCCC)OC(=O)[C@H](C)N(C)C1=O [Compound 5-1]	< 10 µM	no activity	21300 nM	2100 nM	650 nM	19600 nM	3050 nM	3650 nM	10 nM	650 nM	340 nM	73500 nM	
C/C=C1\NC(=O)c2csc(n2)CNC(=O)C[C@@H](/C=C/CCSC(=O)CCCCCCC)OC(=O)[C@H](CCSC)NC1=O [Compound 1-10]	< 0.1 µM	no activity	100 nM	200 nM	10 nM	100 nM	100 nM	1 nM	20 nM	1300 nM	20 nM	80 nM	
C/C=C1\NC(=O)c2csc(n2)CNC(=O)C[C@@H](/C=C/CCSC(=O)CCCCCCC)OC(=O)[C@H](C(C)C)N(C)C1=O [Compound 5-2]	< 10 µM	no activity	240 nM	1300 nM	6410 nM	1050 nM	350 nM	690 nM	10300 nM	21400 nM	20 nM	5030 nM	
C/C=C1\NC(=O)c2csc(n2)[C@H](C(C)C)NC(=O)C[C@@H](/C=C/CCSC(=O)CCCCCCC)OC(=O)[C@H](C(C)C)NC1=O [Compound 4-1]		no activity	540 nM	230 nM	1650 nM	850 nM	260 nM	130 nM	4020 nM	1340 nM	1560 nM	1030 nM	< 10 µM
C/C=C1\NC(=O)c2csc(n2)CNC(=O)C[C@@H](/C=C/CCSC(=O)CCCCCCC)OC(=O)[C@H](CC)NC1=O [Compound 1-2]	< 0.19 µM	no activity	300 nM	20 nM	4 nM	100 nM	100 nM	50 nM	30 nM	200 nM	4 nM	70 nM	
